The source of these data is ChEMBL document CHEMBL6109075, “Identification of constrained peptidomimetics carrying a Michael acceptor warhead as antitrypanosomal agents” (Eur J Med Chem, 2025).

The target of one data set is Rhodesain (Trypanosoma brucei rhodesiense, UniProt Q95PM0). As to the kind of experiment: Inhibition of Trypanosoma brucei rhodesiense rhodesain expressed in Pichia pastoris using Cbz-Phe-Arg-AMC as substrate assessed as inhibition constant incubated for 30 mins by fluorescence assay.
Chain of Rhodesain (Q95PM0 whole entry): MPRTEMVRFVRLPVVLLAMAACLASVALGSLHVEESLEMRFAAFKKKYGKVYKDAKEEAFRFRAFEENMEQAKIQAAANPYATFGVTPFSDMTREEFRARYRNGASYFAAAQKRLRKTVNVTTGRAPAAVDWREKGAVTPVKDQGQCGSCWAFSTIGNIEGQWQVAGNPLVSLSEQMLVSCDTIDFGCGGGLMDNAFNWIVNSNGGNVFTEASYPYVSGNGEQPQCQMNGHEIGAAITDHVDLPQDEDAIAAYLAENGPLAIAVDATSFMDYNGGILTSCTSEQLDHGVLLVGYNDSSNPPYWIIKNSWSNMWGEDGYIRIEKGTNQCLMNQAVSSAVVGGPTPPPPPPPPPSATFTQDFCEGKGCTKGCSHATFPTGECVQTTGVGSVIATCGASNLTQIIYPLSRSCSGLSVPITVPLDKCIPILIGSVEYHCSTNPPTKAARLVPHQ
Data set [1] addresses Rhodesain (Trypanosoma brucei rhodesiense) (UniProt Q95PM0). As to the kind of experiment: Inhibition of Trypanosoma brucei rhodesiense rhodesain expressed in Pichia pastoris using Cbz-Phe-Arg-AMC as substrate assessed as inactivation constant incubated for 30 mins by fluorescence assay.
Data set [2] shares this target. The data set is described as follows: Inhibition of Trypanosoma brucei rhodesiense rhodesain expressed in Pichia pastoris using Cbz-Phe-Arg-AMC as substrate assessed as second order rate constant obtained from ratio of Kinact by Ki incubated for 30 mins by fluorescence assay.
The test system of the next data set is Trypanosoma brucei. As to the kind of experiment: Antitrypanosomal activity against Trypanosoma brucei incubated for 24 hrs by luminescence based ClarioStar plate reader analysis. Format: functional, organism-based.
The nature of data set [3]: Cytotoxicity against human SH-SY5Y cells assessed as reduction in cell viability incubated for 24 hrs by MTT assay. Format: toxicity, cell-based.
Data set [4] deals with Rhodesain (Trypanosoma brucei rhodesiense) (UniProt Q95PM0). As to the kind of experiment: Inhibition of Trypanosoma brucei rhodesiense rhodesain expressed in Pichia pastoris using Cbz-Phe-Arg-AMC as substrate at 20 uM incubated for 30 mins by fluorescence assay relative to control.
Chain of Rhodesain (Trypanosoma brucei rhodesiense) (Q95PM0 1-450): as the sequence (Q95PM0 whole entry) above

Take `CC(=O)/C=C/[C@H](CCc1ccccc1)NC(=O)[C@@H]1Cc2ccccc2CN1C(=O)c1ccc(F)cc1`: the Ki at Rhodesain worked out at 1920 nM. In addition, the Kinact in data set [1] was determined as 0.015 min⁻¹. The Ratio in data set [2] is 8 10^3/M/min. In the data set on Trypanosoma brucei, this compound yielded an EC50 of 850 nM. Moreover, the CC50 at 24 h in data set [3] is > 100000 nM.
As to `CC(=O)/C=C/[C@H](CCc1ccccc1)NC(=O)[C@@H]1Cc2ccccc2CN1C(=O)c1ccccc1F`, the Ki at Rhodesain worked out at 4880 nM. In addition, the Kinact in data set [1] came out at 0.019 min⁻¹. Also, in data set [2], the Ratio is 4.1 10^3/M/min. The EC50 in the data set on Trypanosoma brucei came to 910 nM. Moreover, the CC50 at 24 h in data set [3] is > 100000 nM.
Turning to `CC(=O)/C=C/[C@H](CCc1ccccc1)NC(=O)[C@@H]1Cc2ccccc2CN1C(=O)[C@H](CC(C)C)NC(=O)OCc1ccccc1`, the Ki on Rhodesain was determined as 16 nM. For the same compound, the Kinact in data set [1] is 0.001 min⁻¹. Further, the Ratio in data set [2] is 68.5 10^3/M/min. Moreover, in the data set with Trypanosoma brucei, the EC50 was 580 nM. In addition, in data set [3], the CC50 at 24 h is > 100000 nM.
Regarding `CC(=O)/C=C/[C@H](CCc1ccccc1)NC(=O)[C@@H]1Cc2ccccc2CN1C(=O)[C@H](Cc1ccccc1)NC(=O)OCc1ccccc1`, the Ki on Rhodesain turned out to be 11 nM. The Kinact in data set [1] was 0.001 min⁻¹. Further, in data set [2], the Ratio was 75.6 10^3/M/min. The compound also came in with an EC50 with Trypanosoma brucei of 420 nM. In addition, the CC50 at 24 h in data set [3] is > 100000 nM.
In turn, `CC(=O)/C=C/CNC(=O)[C@@H]1Cc2ccccc2CN1C(=O)c1ccc(F)cc1F` registered an inhibition in data set [4] of 11%.
Consider `CC(=O)/C=C/[C@H](CCc1ccccc1)NC(=O)[C@@H]1Cc2ccccc2CN1C(=O)OCc1ccccc1`, for which, at Rhodesain, the Ki is 720 nM. The Kinact in data set [1] was found to be 0.005 min⁻¹. Moreover, in data set [2], the Ratio was 6.7 10^3/M/min. Also, the EC50 in the data set on Trypanosoma brucei is 670 nM. Also, in data set [3], the CC50 at 24 h was > 100000 nM.
Take `CC(=O)/C=C/[C@H](CCc1ccccc1)NC(=O)[C@@H]1Cc2ccccc2CN1C(=O)c1ccc(F)cc1F`: the Ki on Rhodesain amounted to 90 nM. Besides, in data set [1], the Kinact is 0.012 min⁻¹. For the same compound, the Ratio in data set [2] was 146 10^3/M/min. Also, the EC50 in the data set with Trypanosoma brucei turned out to be 1210 nM. The CC50 at 24 h in data set [3] is > 100000 nM.
Consider `CC(=O)/C=C/[C@H](CCc1ccccc1)NC(=O)[C@@H]1Cc2ccccc2CN1C(=O)Nc1ccc(Cl)cc1C`, for which the inhibition in data set [4] was 40%.
For the compound `CC(=O)/C=C/[C@H](CCc1ccccc1)NC(=O)[C@H](Cc1ccccc1)NC(=O)[C@H](Cc1ccccc1)NC(=O)OCc1ccccc1`, the half-maximal effective concentration (EC50) in the data set on Trypanosoma brucei was determined as 2600 nM.
In turn, `CC(=O)/C=C/[C@H](CCc1ccccc1)NC(=O)[C@@H]1Cc2ccccc2CN1C(=O)[C@H](C)NC(=O)OCc1ccccc1` showed an inhibition in data set [4] of 26%.
On the same count and under the same terms, then `CC(=O)/C=C/[C@H](Cc1ccccc1)NC(=O)[C@@H]1Cc2ccccc2CN1C(=O)c1ccc(F)cc1F`, with 18.4%.
For the compound `CC(=O)/C=C/[C@H](CCc1ccccc1)NC(=O)[C@@H]1Cc2ccccc2CN1C(=O)[C@H](CC1CCCCC1)NC(=O)OCc1ccccc1`, on Rhodesain, the Ki worked out at 22 nM. In addition, the Kinact in data set [1] amounted to 0.001 min⁻¹. The Ratio in data set [2] is 47.9 10^3/M/min. The EC50 with Trypanosoma brucei was determined as 570 nM. The CC50 at 24 h in data set [3] was > 100000 nM.
Take `CC(=O)/C=C/[C@H](C)NC(=O)[C@@H]1Cc2ccccc2CN1C(=O)c1ccc(F)cc1F`: the inhibition in data set [4] amounted to 20.2%.
With `CC(=O)/C=C/[C@H](CCc1ccccc1)NC(=O)[C@@H]1Cc2ccccc2CN1C(=O)c1cccc(F)c1`, the inhibitory constant (Ki) on Rhodesain is 700 nM. For the same compound, the Kinact in data set [1] turned out to be 0.021 min⁻¹. For the same compound, in data set [2], the Ratio was 30.1 10^3/M/min. For the same compound, the EC50 in the data set with Trypanosoma brucei is 1350 nM. The CC50 at 24 h in data set [3] was > 100000 nM.
As to `CC(=O)/C=C/[C@H](CCc1ccccc1)NC(=O)[C@@H]1Cc2ccccc2CN1C(=O)Nc1ccc(C)cc1`, in data set [4], the inhibition was determined as 14%.
`CC(=O)/C=C/[C@H](CCc1ccccc1)NC(=O)[C@H](Cc1ccccc1)NC(=O)[C@H](CC1CCCCC1)NC(=O)OCc1ccccc1` showed an EC50 with Trypanosoma brucei of 1300 nM.
As to `CC(=O)/C=C/[C@H](CCc1ccccc1)NC(=O)[C@@H]1Cc2ccccc2CN1C(=O)c1c(F)cccc1F`, in data set [4], the inhibition amounted to 32%.
For the compound `CC(=O)/C=C/[C@H](CCc1ccccc1)NC(=O)[C@@H]1Cc2ccccc2CN1C(=O)OC(C)(C)C`, in data set [4], the inhibition came out at 18%.
The compound `CC(=O)/C=C/[C@H](CCc1ccccc1)NC(=O)[C@H](Cc1ccccc1)NC(=O)[C@H](CC(C)C)NC(=O)OCc1ccccc1` had an EC50 in the data set with Trypanosoma brucei of 3100 nM.
